Where two headings read alike, the source gives them in different places.

As a reminder, the inhibition is the drop in the measured response relative to a control, in per cent.

In the assay the target is T1, chimeric human H3 receptor (Homo sapiens, UniProt Q9Y5N1, E19D).
T1 construct: made in house; host or cells: Sf9 insect cells (baculovirus infection); P2 membrane preparation
Kind of assay: Chimeric human H3 receptor screening GTP binding assay (inhibition of histamine-stimulated GTP-gamma35S binding, Example 8). It counts as biochemical. Particulars: 1 h, read-out: percent inhibition of agonist-induced GTP-gammaS binding to H3. Put shortly: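 Data are percent inhibition of the 1 μM histamine-stimulated GTP-gamma35S (125 pM) binding, after non-specific binding (10 uM GTP-gammaS) is subtracted. Test compound at 4 μM. Incubation was 60 min at room temperature with Sf9 membranes bearing receptor plus G-protein subunits, buffer pH 7.4 with 10 μM GDP, and filtration read-out.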
On the technique in general: Binding of GTPγS marks nucleotide exchange on a G protein.

Setting [1] is: Table II, "+" in the column headed Ki, assay of Example 8.
Setting [2] is: "+" in Ki of Table II, assay of Example 8.
[3] abbreviates: Table II "Ki", symbol "+": assay described in Example 8.
Where [4] appears, read: assay described in Example 8, symbol + in column headed Ki of Table II.

T1 sequence (Q9Y5N1 with tags, fused parts or gaps E19D): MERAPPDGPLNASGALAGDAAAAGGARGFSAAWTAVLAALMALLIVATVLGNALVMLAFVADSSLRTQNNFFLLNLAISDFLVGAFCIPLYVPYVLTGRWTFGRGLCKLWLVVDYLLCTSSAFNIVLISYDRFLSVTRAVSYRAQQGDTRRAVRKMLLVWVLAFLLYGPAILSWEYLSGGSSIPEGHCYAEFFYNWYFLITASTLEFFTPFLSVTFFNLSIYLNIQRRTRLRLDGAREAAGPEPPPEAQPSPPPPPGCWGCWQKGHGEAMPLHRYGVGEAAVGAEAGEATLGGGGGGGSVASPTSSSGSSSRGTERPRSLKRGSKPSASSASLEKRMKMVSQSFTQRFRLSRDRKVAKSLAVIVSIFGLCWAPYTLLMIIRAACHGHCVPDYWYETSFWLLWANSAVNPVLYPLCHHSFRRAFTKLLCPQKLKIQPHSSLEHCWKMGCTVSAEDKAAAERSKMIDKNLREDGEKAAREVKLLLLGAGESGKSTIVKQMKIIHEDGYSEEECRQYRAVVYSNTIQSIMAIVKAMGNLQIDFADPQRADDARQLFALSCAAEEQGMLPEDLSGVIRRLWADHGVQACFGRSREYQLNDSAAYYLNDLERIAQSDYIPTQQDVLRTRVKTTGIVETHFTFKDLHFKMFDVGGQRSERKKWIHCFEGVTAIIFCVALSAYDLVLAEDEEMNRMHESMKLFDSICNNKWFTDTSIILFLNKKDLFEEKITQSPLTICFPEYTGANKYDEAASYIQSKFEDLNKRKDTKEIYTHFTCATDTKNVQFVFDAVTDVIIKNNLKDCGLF

In the case of `O=C(Cc1cccc(OC(F)(F)F)c1)N1CCN(CC(=O)N2CCN(C3CCC3)CC2)CC1` [Compound 626, 1-cyclobutyl-4-[(4-{[3-(trifluoromethoxy)phenyl]acetyl}piperazin-1-yl)acetyl]piperazine], the inhibition at 4 µM under setting [1] was over 90%.

With `O=C(Cc1ccc(Cl)c(Cl)c1)N1CCN(CC(=O)N2CCN(C3CCC3)CC2)CC1` [Compound 546, 1-cyclobutyl-4-({4-[(3,4-dichlorophenyl)acetyl]piperazin-1-yl}acetyl)piperazine], the inhibition at 4 µM under setting [2] is over 90%.

In the case of `COc1cc(C(=O)N2CCN(CC(=O)N3CCN(C4CCC4)CC3)CC2)nc2ccccc12` [Compound 895, 2-({4-[2-(4-cyclobutylpiperazin-1-yl)-2-oxoethyl]piperazin-1-yl}carbonyl)-4-methoxyquinoline], under setting [3], the inhibition at 4 µM was over 90%.

With `O=C(/C=C/c1c(Cl)cccc1Cl)N1CCN(CC(=O)N2CCN(C3CCC3)CC2)CC1` [Compound 522, 1-cyclobutyl-4-({4-[(2E)-3-(2,6-dichlorophenyl)prop-2-enoyl]piperazin-1-yl}acetyl)piperazine], the inhibition at 4 µM under setting [2] is over 90%.

Consider `O=C(CN1CCN(C(=O)c2ccccc2Cc2ccccc2)CC1)N1CCN(C2CCC2)CC1` [Compound 270, 1-(2-benzylbenzoyl)-4-[2-(4-cyclobutylpiperazin-1-yl)-2-oxoethyl]piperazine], for which the inhibition at 4 µM under setting [4] was over 90%.

As for `O=C(Cc1ccc(Oc2ccccc2)cc1)N1CCN(CC(=O)N2CCN(C3CCC3)CC2)CC1` [Compound 567, 1-cyclobutyl-4-({4-[(4-phenoxyphenyl)acetyl]piperazin-1-yl}acetyl)piperazine], the inhibition at 4 µM under setting [2] was over 90%.

Turning to `Cc1nnsc1C(=O)N1CCN(CC(=O)N2CCN(C3CCC3)CC2)CC1` [Compound 564, 1-cyclobutyl-4-({4-[(4-methyl-1,2,3-thiadiazol-5-yl)carbonyl]piperazin-1-yl}acetyl)piperazine], under setting [2], the inhibition at 4 µM is over 90%.

With `O=C(CN1CCN(C(=O)c2cccnc2Oc2ccc(Cl)cc2)CC1)N1CCN(C2CCC2)CC1` [Compound 473, 1-{[2-(4-chlorophenoxy)pyridin-3-yl]carbonyl}-4-[2-(4-cyclobutylpiperazin-1-yl)-2-oxoethyl]piperazine], the inhibition at 4 µM under setting [2] was over 90%.

Regarding `O=C(Cc1ccc(-c2ccccc2)cc1)N1CCN(CC(=O)N2CCN(C3CCC3)CC2)CC1` [Compound 375, 1-(biphenyl-4-ylacetyl)-4-[2-(4-cyclobutylpiperazin-1-yl)-2-oxoethyl]piperazine], under setting [4], the inhibition at 4 µM was over 90%.

Take `CCOc1ccc(C(=O)N2CCN(CC(=O)N3CCN(C4CCC4)CC3)CC2)cc1OCC` [Compound 728, 1-cyclobutyl-4-{[4-(3,4-diethoxybenzoyl)piperazin-1-yl]acetyl}piperazine]: the inhibition at 4 µM under setting [1] is over 90%.

For the compound `O=C(CN1CCN(C(=O)c2cc(-c3ccccc3)nc3ccccc23)CC1)N1CCN(C2CCC2)CC1` [Compound 1089], the inhibition at 4 µM (Table II, assay of Example 8, "+" in Ki) is over 90%.

For `O=C(CN1CCN(C(=O)c2cc3ccccc3s2)CC1)N1CCN(C2CCC2)CC1` [Compound 261, 1-(1-benzothien-2-ylcarbonyl)-4-[2-(4-cyclobutylpiperazin-1-yl)-2-oxoethyl]piperazine], the inhibition at 4 µM under setting [4] was over 90%.

On to `CCOc1ccsc1C(=O)N1CCN(CC(=O)N2CCN(C3CCC3)CC2)CC1` [Compound 549, 1-cyclobutyl-4-({4-[(3-ethoxy-2-thienyl)carbonyl]piperazin-1-yl}acetyl)piperazine], for which the inhibition at 4 µM under setting [2] was over 90%.

As to `Cc1cnc(C(=O)N2CCN(CC(=O)N3CCN(C4CCC4)CC3)CC2)cn1` [Compound 894, 2-({4-[2-(4-cyclobutylpiperazin-1-yl)-2-oxoethyl]piperazin-1-yl}carbonyl)-5-methylpyrazine], the inhibition at 4 µM under setting [3] was over 90%.

Take `O=C(/C=C/c1ccc(F)cc1)N1CCN(CC(=O)N2CCN(C3CCC3)CC2)CC1` [Compound 529, 1-cyclobutyl-4-({4-[(2E)-3-(4-fluorophenyl)prop-2-enoyl]piperazin-1-yl}acetyl)piperazine]: under setting [2], the inhibition at 4 µM was over 90%.

In the case of `COc1cccc(C(=O)N2CCN(CC(=O)N3CCN(C4CCC4)CC3)CC2)c1OC` [Compound 670, 1-cyclobutyl-4-{[4-(2,3-dimethoxybenzoyl)piperazin-1-yl]acetyl}piperazine], the inhibition at 4 µM under setting [1] is over 90%.

Regarding `O=C(CN1CCN(C(=O)c2ccc(Cl)cc2Cl)CC1)N1CCN(C2CCC2)CC1` [Compound 674, 1-cyclobutyl-4-{[4-(2,4-dichlorobenzoyl)piperazin-1-yl]acetyl}piperazine], the inhibition at 4 µM under setting [1] was over 90%.

Consider `Cc1cc(C(=O)N2CCN(CC(=O)N3CCN(C4CCC4)CC3)CC2)c(C)n1C` [Compound 497, 1-cyclobutyl-4-({4-[(1,2,5-trimethyl-1H-pyrrol-3-yl)carbonyl]piperazin-1-yl}acetyl)piperazine], for which the inhibition at 4 µM under setting [2] is over 90%.

On to `O=C(CN1CCN(C(=O)c2sc3ccccc3c2Cl)CC1)N1CCN(C2CCC2)CC1` [Compound 397, 1-[(3-chloro-1-benzothien-2-yl)carbonyl]-4-[2-(4-cyclobutylpiperazin-1-yl)-2-oxoethyl]piperazine], for which the inhibition at 4 µM under setting [4] was over 90%.

On to `O=C(/C=C/c1cccc(C(F)(F)F)c1)N1CCN(CC(=O)N2CCN(C3CCC3)CC2)CC1` [Compound 615, 1-cyclobutyl-4-[(4-{(2E)-3-[3-(trifluoromethyl)phenyl]prop-2-enoyl}piperazin-1-yl)acetyl]piperazine], for which the inhibition at 4 µM under setting [1] is over 90%.

`O=C(Cc1ccc(F)cc1)N1CCN(CC(=O)N2CCN(C3CCC3)CC2)CC1` [Compound 559, 1-cyclobutyl-4-({4-[(4-fluorophenyl)acetyl]piperazin-1-yl}acetyl)piperazine]: the inhibition at 4 µM under setting [2] is over 90%.

On to `O=C(Cc1ccc(Cl)cc1Cl)N1CCN(CC(=O)N2CCN(C3CCC3)CC2)CC1` [Compound 505, 1-cyclobutyl-4-({4-[(2,4-dichlorophenyl)acetyl]piperazin-1-yl]acetyl)piperazine], for which, under setting [2], the inhibition at 4 µM was over 90%.

Source of the values: patent publication US7851474B2, “Dipiperazinyl ketones and related analogues” (Neurogen Corporation, priority 2005, dated 2010).
